ChEMBL document CHEMBL5230154, “Chemical probe of AHL modulators on quorum sensing in Gram-Negative Bacteria and as antiproliferative agents: A review” (Eur J Med Chem, 2021)
Blank lines part the entries; values can stand above or below the compound they belong to.

Assays:
[1] = Inhibition of quorum sensing system in Pseudomonas aeruginosa PAO1 assessed as inhibition of pyocyanin production at 15 uM incubated for 12 hrs by spectrophotometric assay
[2] = Inhibition of quorum sensing system in Pseudomonas aeruginosa PAO1 assessed as inhibition of elastase production at 15 uM incubated for 12 hrs by Congo red dye based spectrophotometric assay
[3] = Inhibition of quorum sensing system in Pseudomonas aeruginosa PAO1 assessed as inhibition of rhamnolipid production at 15 uM incubated for 12 hrs by spectrophotometric assay
Pseudomonas aeruginosa [4] = assay: Inhibition of biofilm formation in Pseudomonas aeruginosa PAO1 incubated for 12 hrs by crystal violet staining based analysis; type: functional
[5] = Inhibition of quorum sensing system in Pseudomonas aeruginosa PAO1 assessed as decrease in lasI expression at 15 uM incubated for 12 hrs by real-time fluorescent quantitative PCR analysis
[6] = Inhibition of quorum sensing system in Pseudomonas aeruginosa PAO1 assessed as decrease in pqsR expression at 15 uM incubated for 12 hrs by real-time fluorescent quantitative PCR analysis
Serratia marcescens = assay: Antibiofilm activity against Serratia marcescens ATCC 27117 assessed as inhibition of biofilm formation incubated for 24 hrs by crystal violet staining based assay; type: functional, organism-based; conditions: ATCC 27117, 24 h
Pseudomonas aeruginosa [7] = assay: Antibiofilm activity against Pseudomonas aeruginosa PAO1 NCTC 10332 assessed as inhibition of biofilm formation incubated for 24 hrs by crystal violet staining based assay; type: functional, organism-based; conditions: PAO1 NCTC 10332, 24 h
[8] = Inhibition of quorum sensing system in Pseudomonas aeruginosa PA14 assessed as inhibition of pyocyanin production by UV-vis spectrophotometric assay
Escherichia coli [9] = assay: Antagonist activity against quorum sensing system in Pseudomonas aeruginosa PAO1 assessed as inhibition of 3OC6HSL- induced GFP expression at 50 uM by fluorescence analysis; conditions: filed as antagonist
[10] = Inhibition of quorum sensing system in Pseudomonas aeruginosa PA14 assessed as inhibition of pyocyanin production incubated for 17 hrs by spectrophotometric assay
Pseudomonas aeruginosa [11] = assay: Inhibition of quorum sensing system in Pseudomonas aeruginosa MH602 expressing PlasB::gfp assessed as inhibition of GFP fluorescence expression at 250 uM incubated for 15 hrs by fluorescence microplate reader analysis
[12] = Inhibition of quorum sensing system in Pseudomonas aeruginosa PAO1 assessed as inhibition of pyocyanin production at 250 uM incubated for 17 hrs by spectrophotometric analysis
[13] = Inhibition of quorum sensing system in Pseudomonas aeruginosa PAO1 assessed as inhibition of pyocyanin production at 32 uM incubated for 17 hrs by spectrophotometric analysis
Escherichia coli [14] = assay: Inhibition of Escherichia coli MT102 harbouring pJBA132 expressing Gfp assessed as inhibition of GFP fluorescence expression at 62.5 uM incubated for 15 hrs by fluorescence microplate reader analysis
Pseudomonas aeruginosa [15] = assay: Antagonist activity against quorum sensing system in Pseudomonas aeruginosa PAO-JP2 (plasI-LVAgfp) assessed as inhibition of 3-oxo-C12 HSL induced GFP expression at 100 uM incubated for 6 hrs in presence of 1 uM of 3-oxo-C12 HSL by fluorescence analysis; conditions: filed as antagonist
[16] = molecular target: T1, Transcriptional activator protein LasR (Pseudomonas aeruginosa (strain ATCC 15692 / PAO1 / 1C / PRS 101 / LMG12228)) (UniProt P25084); assay: Antagonist activity against LasR-mediated quorum sensing system in Pseudomonas aeruginosa PAO1 assessed as inhibition of pyocyanin production at 200 uM incubated for 13 hrs by spectrophotometric assay; conditions: filed as antagonist
T1 sequence (whole entry): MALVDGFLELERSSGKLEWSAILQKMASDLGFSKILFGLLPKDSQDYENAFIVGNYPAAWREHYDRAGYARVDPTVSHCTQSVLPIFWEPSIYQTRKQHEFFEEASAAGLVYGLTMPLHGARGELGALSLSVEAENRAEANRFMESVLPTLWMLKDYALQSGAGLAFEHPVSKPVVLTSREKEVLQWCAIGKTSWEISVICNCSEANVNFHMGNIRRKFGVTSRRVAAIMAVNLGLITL

[17] = Cytotoxicity against human PBMC cells assessed as reduction in cell viability at 100 uM by MTT assay; type: toxicity, cell-based
Pseudomonas aeruginosa [18] = assay: Inhibition of Pseudomonas aeruginosa MH602 harboring PlasB::gfp(ASV) reporter assessed as decrease in GFP expression at 250 uM incubated for 22 hrs by fluorescence microplate reader analysis
Pseudomonas aeruginosa [19] = assay: Inhibition of Pseudomonas aeruginosa MH602 harboring PlasB::gfp(ASV) reporter assessed as decrease in GFP expression at 125 uM incubated for 22 hrs by fluorescence microplate reader analysis
[20] = molecular target: T2, Transcriptional activator protein LuxR (Vibrio fischeri (strain ATCC 700601 / ES114), UniProt P35327); assay: Antagonist activity against LuxR mediated quorum sensing system in Vibrio fischeri ES114 expressing luxI assessed as decrease in luminescence intensity incubated for 4 to 8 hrs by bioluminescence analysis; parameters: species or system Aliivibrio fischeri
T2 sequence (P35327 whole entry): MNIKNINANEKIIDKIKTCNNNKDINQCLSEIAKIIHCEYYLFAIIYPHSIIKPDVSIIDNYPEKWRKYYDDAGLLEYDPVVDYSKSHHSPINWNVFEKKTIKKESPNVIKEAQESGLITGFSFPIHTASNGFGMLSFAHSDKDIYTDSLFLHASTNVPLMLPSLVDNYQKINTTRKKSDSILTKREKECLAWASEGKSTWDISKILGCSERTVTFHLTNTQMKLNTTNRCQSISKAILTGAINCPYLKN

[21] = Inhibition of quorum sensing system in Pseudomonas aeruginosa PAO1 assessed as decrease in lasA expression at 15 uM incubated for 12 hrs by real-time fluorescent quantitative PCR analysis
[22] = Inhibition of quorum sensing system in Pseudomonas aeruginosa PAO1 assessed as decrease in rhlR expression at 15 uM incubated for 12 hrs by real-time fluorescent quantitative PCR analysis
[23] = Inhibition of quorum sensing system in Pseudomonas aeruginosa MW1 assessed as inhibition of LasR expression at 33 uM incubated for 8 to 12 hrs in presence of 3-oxo-C12 HSL by fluorescence analysis; conditions: time 8-12 hrs
[24] = Inhibition of quorum sensing system in Pseudomonas aeruginosa MW1 assessed as inhibition of LasR expression incubated for 8 to 12 hrs in presence of 3-oxo-C12 HSL by fluorescence analysis
Escherichia coli [25] = assay: Inhibition of Escherichia coli MT102 harbouring pJBA132 expressing Gfp assessed as inhibition of GFP fluorescence expression at 250 uM incubated for 15 hrs by fluorescence microplate reader analysis
[26] = Agonist activity against RhlR in Escherichia coli expressing JLD271/pJN105R2/pSC11-rhlI using CPRG as substrate by spectrophotometric assay
[27] = molecular target: T3, HTH-type quorum-sensing regulator RhlR (Pseudomonas aeruginosa (strain ATCC 15692 / PAO1 / 1C / PRS 101 / LMG12228), UniProt P54292); assay: Agonist activity against RhlR in Pseudomonas aeruginosa PAO-JP2 expressing prhlI-LVAgfp using CPRG as substrate by spectrophotometric assay
T3 sequence (P54292 whole entry): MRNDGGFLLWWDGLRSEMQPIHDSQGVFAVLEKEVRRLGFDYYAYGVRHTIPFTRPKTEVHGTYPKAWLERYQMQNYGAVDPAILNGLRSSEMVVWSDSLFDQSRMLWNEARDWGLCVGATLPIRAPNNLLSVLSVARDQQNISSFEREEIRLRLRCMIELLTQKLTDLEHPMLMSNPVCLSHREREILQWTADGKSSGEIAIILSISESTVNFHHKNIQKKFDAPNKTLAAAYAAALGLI

inhibition [1]: 30.3%
inhibition [2]: 18.4%
inhibition [3]: 16.7%
inhibition [5]: 39.2%
inhibition [6]: 57.5%
Structure (SMILES): COc1ccccc1NC(=O)NC(=O)CSC(=S)N[C@H]1CCOC1=O
inhibition (INH) (Pseudomonas aeruginosa [4]): 40.3%

inhibition (Escherichia coli [9]): 57.9%
Structure (SMILES): CCOC(=O)/C=C1\CC(NCc2ccccc2)C(=O)N1Cc1ccccc1 (centres undefined)

IC50 [10]: 9 µM
Structure (SMILES): O=C(CCCOc1cccc(Cl)c1)NC1CCSC1=O (centres undefined)

inhibition (Pseudomonas aeruginosa [11]): 80.7%
inhibition [12]: 90%
inhibition [13]: 80%
Structure (SMILES): O=C1C(Br)=C(Br)CN1c1ccccc1

inhibition (Escherichia coli [14]): 56.5%
Structure (SMILES): C#CCNC(=O)C(=O)c1ccccc1NC(=O)CCl

inhibition [16]: 73%
Structure (SMILES): CCCCCCCCCC(=O)CC(=O)Nc1ccc(OC)cc1

inhibition (Escherichia coli [9]): 53.5%
Structure (SMILES): CCOC(=O)/C=C1\CC(NCc2cccs2)C(=O)N1Cc1cccs1 (centres undefined)

IC50 [20]: 0.6 µM
Structure (SMILES): O=C(Cc1ccc(I)cc1)N[C@H]1CCOC1=O

inhibition [1]: 34.5%
inhibition [2]: 13.7%
inhibition [3]: 28.1%
inhibition [5]: 55.1%
inhibition [21]: 64.1%
inhibition [6]: 72.5%
inhibition [22]: 48.4%
Structure (SMILES): Cc1cccc(NC(=O)NC(=O)CSC(=S)N[C@H]2CCOC2=O)c1
inhibition (INH) (Pseudomonas aeruginosa [4]): 36.2%

inhibition [1]: 27.5%
inhibition [3]: 17.6%
inhibition [5]: 47.9%
inhibition [21]: 58.5%
inhibition [6]: 53.5%
Structure (SMILES): O=C(CCSc1ccc(Cl)cc1)N[C@H]1CCOC1=O
inhibition (INH) (Pseudomonas aeruginosa [4]): 34.1%

inhibition [23]: 75%
IC50 [24]: 10 µM
Structure (SMILES): CCCCCCCCCNC(=O)CC(=O)c1ccccc1

inhibition (Pseudomonas aeruginosa [11]): 81.7%
inhibition [12]: 90%
inhibition [13]: 80%
Structure (SMILES): O=C1C(Cl)=C(Cl)CN1c1ccccc1

Further lines, the compound ahead of its results:

Structure (SMILES): NCCCCCCCCCCCCNc1ccnc2cc(Cl)ccc12
IC50 (Serratia marcescens): 69 µM
IC50 (Pseudomonas aeruginosa [7]): 69 µM
IC50 [8]: 2.5 µM

Structure (SMILES): CCCCCCCCCCCC(=O)NC1CCC[C@@H]1O (some centres undefined)
inhibition (Pseudomonas aeruginosa [15]): 70%

Structure (SMILES): O=C(CCCNc1ccc(Cl)cc1)NC1CCOC1=O (centres undefined)
Activity [17]: 57.4%

Structure (SMILES): O=C1C(=O)N(C(=O)CCl)c2ccccc21
inhibition (Pseudomonas aeruginosa [18]): 60.1%
inhibition (Pseudomonas aeruginosa [19]): 34.7%

Structure (SMILES): NCCCCCCCCCCCCNc1ccnc2cc(C(F)(F)F)ccc12
IC50 (Serratia marcescens): 63 µM
IC50 (Pseudomonas aeruginosa [7]): 63 µM

Structure (SMILES): C#CNC(=O)C(=O)c1cc(C)ccc1NC(=O)CCl
inhibition (Pseudomonas aeruginosa [18]): 36.9%
inhibition (Pseudomonas aeruginosa [19]): 64.6%

Structure (SMILES): O=C1Cn2nncc2CNC(=O)C(=O)c2ccccc2NC(=O)Cn2nncc2CNC(=O)C(=O)c2ccccc2N1
inhibition (Escherichia coli [25]): 18.7%
inhibition (Pseudomonas aeruginosa [18]): 74%

Structure (SMILES): CC(C)CCCC(=O)N[C@H]1CCOC1=O
EC50 [26]: 1.42 µM
EC50 [27]: 1.02 µM
